# In PubChem BioAssay AID2327 (Broad Institute, 2010):
# Records with an inconclusive call do not appear. Activity calls are given as the source filed them.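 Rule for the calls: active = compound whose fitted EC50 for lowering fibroblast viability lies at most a set limit above the top dose tested; inconclusive = flat fit with 30 to 70% activity, or poor fit; inactive = the rest.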
# Tested on: NIH-3T3 fibroblast viability, Alamar Blue, 48 h, fluconazole
# Experiment: NIH-3T3 fibroblast cytotoxicity, dose response, cytotoxicity control, cell-based, fluorescence, Alamar Blue, secondary assay (AID 2327)
row,Structure (SMILES),EC50
1,C[C@]12CC[C@H](O)C[C@@H]1CC[C@@H]1[C@@H]2CC[C@]2(C)C(=O)CC[C@@H]12,> 16 µM (inactive)
2,CC1CCC(C(C)C)C(OC(=O)Cn2c(-c3ccc(Br)cc3)[n+](C)c3ccccc32)C1 (configuration not stated),> 16 µM (inactive)
3,O=C1/C(=C\c2cccnc2)SC(=S)N1C1CCS(=O)(=O)C1 (configuration not stated),> 16 µM (inactive)
4,C[C@]12CCC3[C@@H](CC[C@H]4C[C@@H](O)CC[C@]34C)C1CCC2=O (some centres not stated),> 15 µM (inactive)
5,NC(=NCCCCCCN=C(N)/N=C(\N)Nc1ccc(Cl)cc1)/N=C(\N)Nc1ccc(Cl)cc1,> 16 µM (inactive)
6,CC1CCC(C(C)C)C(OC(=O)C[n+]2cc(-c3ccc(Cl)cc3)n3c2CCCCC3)C1 (configuration not stated),> 16 µM (inactive)
7,O=C1/C(=C/c2cccnc2)SC(=S)N1C1CCS(=O)(=O)C1 (configuration not stated),> 15 µM (inactive)
